In ChEMBL document CHEMBL1151820, “Antagonists of the P2X(7) receptor. From lead identification to drug development” (J Med Chem, 2009):
Values belong to the molecule of their own block, whether it stands above or below them.

Assays:
[1] = biological target: T1, P2X purinoceptor 7 (Homo sapiens, UniProt Q99572); experiment: Antagonist activity at P2X7 receptor in human THP1 cells assessed as effect on BzATP-induced Yo-Pro uptake; type: functional, cell-based, THP-1
T1 sequence (Q99572 whole entry): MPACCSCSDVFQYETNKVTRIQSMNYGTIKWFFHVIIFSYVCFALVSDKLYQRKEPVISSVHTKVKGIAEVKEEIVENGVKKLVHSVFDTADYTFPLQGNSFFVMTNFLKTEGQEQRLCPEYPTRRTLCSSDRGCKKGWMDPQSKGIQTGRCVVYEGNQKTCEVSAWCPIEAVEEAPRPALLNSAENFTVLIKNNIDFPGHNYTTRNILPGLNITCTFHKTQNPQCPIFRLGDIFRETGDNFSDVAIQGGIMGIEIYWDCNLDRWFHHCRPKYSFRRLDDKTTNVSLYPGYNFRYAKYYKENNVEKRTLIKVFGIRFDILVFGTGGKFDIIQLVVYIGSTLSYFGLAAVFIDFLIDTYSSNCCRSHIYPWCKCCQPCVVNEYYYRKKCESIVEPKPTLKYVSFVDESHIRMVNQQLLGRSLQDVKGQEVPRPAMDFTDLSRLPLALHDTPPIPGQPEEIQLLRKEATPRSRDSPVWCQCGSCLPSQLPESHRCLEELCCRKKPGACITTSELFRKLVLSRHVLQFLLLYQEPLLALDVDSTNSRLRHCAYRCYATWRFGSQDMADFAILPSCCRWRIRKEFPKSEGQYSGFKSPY

[2] = Oral bioavailability in rat; type: ADME, organism-based; conditions: in vivo
[3] = Metabolic stability in human liver microsomes assessed as half life; type: ADME, Microsome
[4] = biological target: T1, P2X purinoceptor 7; experiment: Antagonist activity at P2X7 receptor in human THP1 cells assessed as inhibition of BzATP-induced ethidium uptake; type: functional, cell-based, THP-1
[5] = tested on: Rattus norvegicus; experiment: Antinociceptive activity in ip dosed rat Chung model of neuropathic pain; type: functional
[6] = biological target: T2, P2X purinoceptor 7 (Rattus norvegicus, UniProt Q64663); experiment: Activity at rat P2X7 receptor expressed in HEK cells assessed as effect on BzATP-induced ethidium uptake; type: cell-based, HEK293
T2 sequence (Q64663 whole entry): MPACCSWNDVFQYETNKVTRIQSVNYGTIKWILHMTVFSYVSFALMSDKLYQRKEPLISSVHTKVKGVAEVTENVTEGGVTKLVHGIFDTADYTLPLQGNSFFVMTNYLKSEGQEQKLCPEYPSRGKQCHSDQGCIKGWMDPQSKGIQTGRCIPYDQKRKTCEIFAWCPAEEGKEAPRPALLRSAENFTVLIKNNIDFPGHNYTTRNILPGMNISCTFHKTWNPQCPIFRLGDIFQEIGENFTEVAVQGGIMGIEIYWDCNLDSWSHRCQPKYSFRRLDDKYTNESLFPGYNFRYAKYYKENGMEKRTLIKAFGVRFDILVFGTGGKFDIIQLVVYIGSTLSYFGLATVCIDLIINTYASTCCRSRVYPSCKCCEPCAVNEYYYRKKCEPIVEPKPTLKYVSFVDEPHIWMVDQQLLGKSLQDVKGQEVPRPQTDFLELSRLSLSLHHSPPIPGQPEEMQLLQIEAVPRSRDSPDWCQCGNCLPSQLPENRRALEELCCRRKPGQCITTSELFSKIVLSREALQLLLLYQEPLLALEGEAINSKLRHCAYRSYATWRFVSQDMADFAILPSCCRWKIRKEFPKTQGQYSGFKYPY

[7] = biological target: T1, P2X purinoceptor 7; experiment: Antagonist activity at human P2X7 receptor expressed in HEK293 cells assessed as inhibition of BzATP-induced calcium influx; type: functional, cell-based
[8] = Protein binding in rat plasma; type: ADME, cell-free; conditions: read-out: PB (converted)
[9] = biological target: T1, P2X purinoceptor 7; experiment: Antagonist activity at P2X7 receptor in human lymphocytes assessed as inhibition of ATP-induced Ba2+ influx; type: functional, cell-based
[10] = biological target: T1, P2X purinoceptor 7; experiment: Antagonist activity at human P2X7 receptor expressed in HEK293 cells assessed as inhibition of ATP-induced ethidium uptake
[11] = Half life in rat; type: ADME, organism-based; conditions: in vivo
[12] = Metabolic stability in rat hepatocytes assessed as intrinsic clearance assessed per million cells; type: ADME, cell-based, Liver, Hepatocyte
[13] = Volume of distribution at steady state in rat; type: ADME, organism-based; conditions: in vivo, read-out: Vdss
[14] = Plasma clearance in rat; type: ADME, organism-based
[15] = biological target: T1, P2X purinoceptor 7; experiment: Antagonist activity at human P2X7 receptor expressed in human U373 cells assessed as inhibition of BzATP-induced Yo-Pro uptake; type: functional, cell-based, U-373MG ATCC
[16] = biological target: T1, P2X purinoceptor 7; experiment: Inhibition of human P2X7 receptor assessed as inhibition of BzATP-induced IL1-beta release
[17] = Bioavailability in Sprague-Dawley rat; type: ADME, organism-based; conditions: in vivo
[18] = Half life in Sprague-Dawley rat; type: ADME, organism-based; conditions: in vivo
[19] = Terminal phase volume of distribution in Sprague-Dawley rat; type: ADME, organism-based; conditions: in vivo, read-out: Vbeta
[20] = Plasma clearance in Sprague-Dawley rat; type: ADME, organism-based
[21] = tested on: Mus musculus; experiment: In vivo receptor activity at P2X7 receptor in mouse model assessed as ATP-induced IL1-beta release; type: functional
[22] = tested on: Rattus norvegicus; experiment: Antiinflammatory activity in po dosed rat acute inflammatory pain model assessed as inhibition of FCA-induced weight bearing capacity; type: functional
[23] = tested on: Rattus norvegicus; experiment: Analgesic activity in po dosed rat model of joint pain assessed as inhibition of FCA-induced weight bearing capacity administered twice daily for 5 days; type: functional; conditions: 120 h
[24] = biological target: T3, P2X purinoceptor 7 (Homo sapiens) (UniProt Q99572); experiment: Inhibition of human P2X7 receptor in human PBMC assessed as inhibition of BzATP-induced IL1-beta release at 0.3 uM
T3 sequence (whole entry): T1 sequence (Q99572 whole entry)

IC50 [1]: 3.16 nM
SMILES: Cc1cc(-c2ccc(Cl)c(C(=O)NCC3(O)CCCCCC3)c2)nn1CC(=O)NCCN(C)C

bioavailability [2]: 25% | half-life [3]: 1 h | IC50 [4]: 1.26 nM
SMILES: C[C@H](CO)n1ccc2c(NC(=O)Cc3ccc(Cl)c(C(F)(F)F)c3)cccc2c1=O

IC50 [6]: 200 nM | IC50 [4]: 79.4 nM
SMILES: Cc1ccccc1Cn1cnnc1-c1cccc(Cl)c1Cl
Efficacy [5]: 68%

IC50 [7]: 63.1 nM
SMILES: CN([C@@H](Cc1ccc(OS(=O)(=O)c2cccc3cnccc23)cc1)C(=O)N1CCC(Cc2ccccc2)CC1)S(=O)(=O)c1cccc2cnccc12

fraction unbound [8]: 0.34
SMILES: Cc1ccc(C(=O)N2CC3CNCC(C2)O3)cc1NC(=O)CC12CC3CC(CC(C3)C1)C2

IC50 [9]: 15.8 nM
SMILES: CN([C@@H](Cc1ccc(OS(=O)(=O)c2cccc3cnccc23)cc1)CN1CCN(c2ccccc2)CC1)S(=O)(=O)c1cccc2cnccc12

IC50 [10]: < 3160 nM | pIC50 ([7]; hek293): > 4.7
SMILES: Cc1n[nH]c(C)c1CC(=O)NCc1ccc(F)c(C(F)(F)F)c1

half-life [11]: 1 h | hepatocyte CLint [12]: 5 µL/min/1e6 cells | Vd [13]: 2 L/kg | Kb ([4]; read-out: pA2 (converted)): 39.8 nM | clearance [14]: 47 mL/min/kg
SMILES: O=C(CC12CC3CC(CC(C3)C1)C2)Nc1ccccc1

IC50 [7]: 20 nM
SMILES: CN([C@@H](Cc1ccc(OS(=O)(=O)c2cccc3cnccc23)cc1)C(=O)N1CCN(Cc2ccccc2)CC1)S(=O)(=O)c1cccc2cnccc12

IC50 [1]: 200 nM
SMILES: O=C(NCC1(O)CCCCCC1)c1cc(-c2cc[nH]n2)ccc1Cl

hepatocyte CLint [12]: > 100 µL/min/1e6 cells
SMILES: O=C(NCC12CC3CC(CC(C3)C1)C2)c1ccccc1Cl

IC50 [7]: 15.8 nM
SMILES: Cc1ccccc1N1CCN(C(=O)[C@H](Cc2ccc(OS(=O)(=O)c3cccc4cnccc34)cc2)N(C)S(=O)(=O)c2cccc3cnccc23)CC1

IC50 [15]: 63.1 nM | IC50 [16]: 1260 nM
SMILES: Fc1cccc(CNC2=N[C@@H](c3cccc(F)c3)[C@@H](c3cccc(F)c3)N2)c1

bioavailability [17]: 20% | half-life [18]: 4 h | Vd [19]: 21 L/kg | clearance [20]: 62 mL/min/kg
SMILES: COc1ccc(CC(=O)NC(N/C(=N/C#N)Nc2cccc3ncccc23)C(C)(C)C)cc1OC (centres undefined)

bioavailability [2]: > 75% | half-life [3]: 3.7 h | IC50 [4]: 6.31 nM
SMILES: O=C(Cc1ccc(C(F)(F)F)c(F)c1)Nc1c(Cl)ccc2c(=O)n(CCO)ccc12

IC50 [4]: 100 nM
SMILES: O=C(NCC1(O)CCCCCC1)c1cc(-n2ncc(=O)[nH]c2=O)ccc1Cl
ED50 [21]: 2 mg/kg

IC50 [6]: 50.1 nM | IC50 [4]: 50.1 nM
SMILES: C=C1C2(C(=O)NNc3ccccc3)CCC(C2)C1(C)C (centres undefined)

SMILES: CN1C(=O)CCC1C(=O)NCc1ccc(Cl)cc1Cl (centres undefined)
ED50 [22]: < 20 mg/kg | ED50 [23]: < 20 mg/kg

inhibition [24]: > 75%
SMILES: O=C(CC12CC3CC(CC(C3)C1)C2)Nc1ncnc2c1CCN(S(=O)(=O)c1ccc(F)cc1F)C2

IC50 [6]: 251 nM | IC50 [4]: 20 nM
SMILES: Cc1ccccc1Nc1ncnn1-c1cccc(Cl)c1Cl

IC50 [6]: 25.1 nM
SMILES: Clc1cccc(-n2ncnc2NCc2cccnc2N2CCCC2)c1Cl

IC50 [7]: ≤ 200 nM
SMILES: COc1cccc(NC(=O)c2cccc(Cc3c(C)nn(CCO)c3-c3ccccc3)c2)c1

IC50 [7]: 63.1 nM
SMILES: O=C(CNS(=O)(=O)c1cccc2cnccc12)N1CCN(c2ccc(F)cc2)CC1

IC50 [7]: 1.26 nM
SMILES: CN([C@@H](Cc1ccc(OS(=O)(=O)c2cccc3cnccc23)cc1)C(=O)N1CCN(c2ccc(F)cc2)CC1)S(=O)(=O)c1cccc2cnccc12

IC50 [7]: 12.6 nM
SMILES: CN([C@@H](Cc1ccc(OS(=O)(=O)c2cccc3cnccc23)cc1)C(=O)N1CCN(c2cccc(Cl)c2)CC1)S(=O)(=O)c1cccc2cnccc12
